US8623896B2, “Insecticidal compounds” (Syngenta Crop Protection, LLC, priority 2007, dated 2014)

Columns and labels:
Assay type in all cases: in vivo
Details in all cases: same protocol, 200 ppm
[1] = tested on: Spodoptera littoralis (Egyptian Cotton Leafworm); test: Spodoptera littoralis cotton leaf disc spray test
Source text: Cotton leaf discs were placed on agar in a 24-well microtiter plate and sprayed with test solutions at an application rate of 200 ppm. After drying, the leaf discs were infested with 5 L1 larvae. The samples were checked for mortality, feeding behavior, and growth regulation 3 days after treatment (DAT).

[2] = tested on: Heliothis virescens (Tobacco Budworm); test: Heliothis virescens egg test on artificial diet
Method: Eggs (0-24 h old) were placed in 24-well microtiter plate on artificial diet and treated with test solutions at an application rate of 200 ppm (concentration in well 18 ppm) by pipetting. After an incubation period of 4 days, samples were checked for egg mortality, larval mortality, and growth regulation.

[3] = tested on: Plutella xylostella (Diamond Back Moth); test: Plutella xylostella larvae test on artificial diet
Method: (§1) 24-well microtiter plate (MTP) with artificial diet was treated with test solutions at an application rate of 200 ppm (concentration in well 18 ppm) by pipetting. After drying, the MTP's were infested with L2 larvae (7-12 per well). After an incubation period of 6 days, samples were checked for larval mortality and growth regulation.

[4] = tested on: Diabrotica balteata (Corn Root Worm); test: Diabrotica balteata larvae test on artificial diet
Method: as §1, with “A 24-well” for “24-well”, “(6-10” for “(7-12”, “5” for “6”

[5] = tested on: Thrips tabaci (Onion Trips); test: Thrips tabaci sunflower leaf disc spray test
[6] = tested on: Tetranychus urticae (Two-Spotted Spider Mite); test: Tetranychus urticae bean leaf disc spray test
Source text: Bean leaf discs on agar in 24-well microtiter plates were sprayed with test solutions at an application rate of 200 ppm. After drying, the leaf discs are infested with mite populations of mixed ages. 8 days later, discs are checked for egg mortality, larval mortality, and adult mortality.

Measured: effect on mortality, feeding behavior, or growth regulation

CC1(NC(=O)c2ccc(C3=NOC(c4cc(Cl)cc(Cl)c4)(C(F)(F)F)C3)cc2C#N)CSC1 (stereo not drawn) [A18]
little or no effect: all assays above

N#Cc1cc(C2=NOC(c3cc(Cl)cc(Cl)c3)(C(F)(F)F)C2)ccc1C(=O)NC1CSC1 (stereo not drawn) [A19]
little or no effect: all assays above

Cc1cc(C2=NOC(c3cc(Cl)cc(Cl)c3)(C(F)(F)F)C2)ccc1C(=O)NCC1CCN1Cc1ccccc1 (stereo not drawn) [B2]
little or no effect: all assays above
